Results from patent US8940720B2, “Macrocycles as factor XIa inhibitors” (Bristol-Myers Squibb Company, priority 2010, dated 2015).
Counter-ions that a name gives are not always drawn.

Each compound was assayed against purified human Factor XIa (Homo sapiens (Human), UniProt P03951) (assay: Factor XIa enzyme inhibition assay (chromogenic substrate S-2366)). Conditions: substrate S-2366, pH 7.4.
Type: biochemical
Protocol: The effectiveness of compounds of the present invention as inhibitors of the coagulation Factors XIa, VIIa, IXa, Xa, XIIa, plasma kallikrein or thrombin, can be determined using a relevant purified serine protease, respectively, and an appropriate synthetic substrate. The rate of hydrolysis of the chromogenic or fluorogenic substrate by the relevant serine protease was measured both in the absence and presence of compounds of the present invention. […] A decrease in the rate of absorbance or fluorescence change in the presence of inhibitor is indicative of enzyme inhibition. Such methods are known to one skilled in the art. The results of this assay are expressed as the inhibitory constant, Ki.
Values of Ki were determined by allowing the protease to react with the substrate in the presence of the inhibitor. Reactions were allowed to go for periods of 20-180 minutes (depending on the protease) and the velocities (rate of absorbance or fluorescence change versus time) were measured. The following relationships were used to calculate Ki values: (vo−vs)/vs=I/(Ki(1+S/Km)) for a competitive inhibitor with one binding site; or vs/vo=A+((B−A)/1+((IC50/(I)n))); and Ki=IC50/(1+S/Km) for a competitive inhibitor where: […]

purified human Factor XIa, sequence (P03951 388-625): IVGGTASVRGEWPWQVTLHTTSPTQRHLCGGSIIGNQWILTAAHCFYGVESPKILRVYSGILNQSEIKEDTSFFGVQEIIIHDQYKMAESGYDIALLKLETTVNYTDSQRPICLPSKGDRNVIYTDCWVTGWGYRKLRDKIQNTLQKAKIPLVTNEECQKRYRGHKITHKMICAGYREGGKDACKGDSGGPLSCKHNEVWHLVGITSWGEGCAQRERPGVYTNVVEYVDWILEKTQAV
purified human Factor XIa, sequence (P03951 19-387 partner): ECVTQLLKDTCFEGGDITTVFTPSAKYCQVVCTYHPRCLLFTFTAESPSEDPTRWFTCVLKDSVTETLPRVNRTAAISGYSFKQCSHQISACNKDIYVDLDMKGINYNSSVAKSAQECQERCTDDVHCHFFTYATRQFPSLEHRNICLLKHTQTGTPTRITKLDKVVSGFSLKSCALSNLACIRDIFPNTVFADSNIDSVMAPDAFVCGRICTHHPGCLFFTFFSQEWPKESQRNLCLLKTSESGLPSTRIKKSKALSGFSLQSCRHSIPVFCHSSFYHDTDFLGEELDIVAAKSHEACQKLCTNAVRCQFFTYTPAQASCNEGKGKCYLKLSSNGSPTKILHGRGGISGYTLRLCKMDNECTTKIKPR

SMILES | Ki [nM]
O=C(/C=C/c1cc(Cl)ccc1-n1cnnn1)N[C@H]1CC=CCCC(=O)Nc2ccccc2C2=NN=C1O2 (mixture of isomers) [Example 122, (E)-3-(5-Chloro-2-tetrazol-1-yl-phenyl)-N-((S)-9-oxo-19-oxa-8,17,18-triaza-tricyclo[14.2.1.0^2,7]nonadeca-1(18),2,4,6,12,16-hexaen-15-yl)-acrylamide, and (Z)-3-(5-Chloro-2-tetrazol-1-yl-phenyl)-N-((S)-9-oxo-19-oxa-8,17,18-triaza-tricyclo[14.2.1.0^2,7]nonadeca-1(18),2,4,6,12,16-hexaen-15-yl)-acrylamide] | 25
COC(=O)Nc1ccc2c(c1)NC(=O)CCC(C)CC[C@H](NC(=O)/C=C/c1cc(Cl)ccc1-n1cnnn1)c1nc-2c[nH]1 (single isomer, unassigned) [Example 61] | < 5
COC(=O)Nc1ccc2c(c1)NC(=O)CC(O)C(O)C[C@H](NC(=O)/C=C/c1cc(Cl)ccc1-n1cnnn1)c1nc-2c[nH]1 (single isomer, unassigned) [Example 137] | 192
COC(=O)Nc1ccc2c(c1)NS(=O)(=O)CC=CC[C@H](NC(=O)/C=C/c1cc(Cl)ccc1-n1cnnn1)c1nc-2c[nH]1 (stereo in doubt) [Example 19, {(E)-(S)-14-[(E)-3-(5-Chloro-2-tetrazol-1-yl-phenyl)-acryloylamino]-9,9-dioxo-9λ^6-thia-8,16,18-triaza-tricyclo[13.2.1.0^2,7]octadeca-1(17),2,4,6,11,15(18)-hexaen-5-yl}-carbamic acid methyl ester] | 96
NC[C@H]1CC[C@H](C(=O)N[C@H]2C/C=C/CCCc3ccccc3-c3c[nH]c2n3)CC1 [Example 3] | 6170
COC(=O)Nc1ccc2c(c1)CCC/C=C/C[C@H](NC(=O)/C=C/c1cc(Cl)ccc1-n1cnnn1)c1nc-2c[nH]1 [Example 4, {(E)-(S)-14-[(E)-3-(5-Chloro-2-tetrazol-1-yl-phenyl)-acryloylamino]-16,18-diaza-tricyclo[13.2.1.0^2,7]octadeca-1(17),2,4,6,11,15(18)-hexaen-5-yl}-carbamic acid methyl ester] | 636
COC(=O)Nc1ccc2c(c1)CCCCCC[C@H](NC(=O)/C=C/c1cc(Cl)ccc1-n1cnnn1)c1nc-2c[nH]1 [Example 6, {(S)-14-[(E)-3-(5-Chloro-2-tetrazol-1-yl-phenyl)-acryloylamino]-16,18-diaza-tricyclo[13.2.1.0^2,7]octadeca-1(17),2,4,6,15(18)-pentaen-5-yl}-carbamic acid methyl ester] | 34
COC(=O)Nc1ccc2c(c1)OCCCCC[C@H](NC(=O)/C=C/c1cc(Cl)ccc1-n1cnnn1)c1nc-2c(Cl)[nH]1 [Example 9, {(S)-17-Chloro-14-[(E)-3-(5-chloro-2-tetrazol-1-yl-phenyl)-acryloylamino]-8-oxa-16,18-diaza-tricyclo[13.2.1.0^2,7]octadeca-1(17),2,4,6,15(18)-pentaen-5-yl}-carbamic acid methyl ester] | 249
COC(=O)Nc1ccc2c(c1)NCCCCC[C@H](NC(=O)/C=C/c1cc(Cl)ccc1-n1cnnn1)c1nc-2c[nH]1 [Example 11, {(S)-14-[(E)-3-(5-Chloro-2-tetrazol-1-yl-phenyl)-acryloylamino]-8,16,18-triaza-tricyclo[13.2.1.0^2,7]octadeca-1(17),2,4,6,15(18)-pentaen-5-yl}-carbamic acid methyl ester] | 6
COC(=O)Nc1ccc2c(c1)NCC(F)(F)C(=O)NC[C@H](NC(=O)/C=C/c1cc(Cl)ccc1-n1cnnn1)c1nc-2c[nH]1 [Example 21, {(S)-14-[(E)-3-(5-Chloro-2-tetrazol-1-yl-phenyl)-acryloylamino]-10,10-difluoro-11-oxo-8,12,16,18-tetraaza-tricyclo[13.2.1.0^2,7]octadeca-1(17),2,4,6,15(18)-pentaen-5-yl}-carbamic acid methyl ester] | 4520
COC(=O)Nc1ccc2c(c1)NC(=O)CC/C=C/CC(NC(=O)/C=C/c1cc(Cl)ccc1-n1cnnn1)c1cc(Cl)nnc1-2 (stereo not drawn) [Example 89, Methyl((E)-3-chloro-5-((E)-3-(5-chloro-2-(1H-tetrazol-1-yl)phenyl)acrylamido)-11-oxo-5,6,9,10,11,12-hexahydrobenzo[b]pyridazino[3,4-d][1]azacyclododecin-14-yl)carbamate] | 1060
COC(=O)Nc1ccc2c(c1)NC(=O)CC/C=C/C[C@H](NC(=O)[C@H]1CC[C@H](CN)CC1)c1cc-2ccn1 [Example 90, {(E)-(S)-15-[(4-Aminomethyl-cyclohexanecarbonyl)-amino]-9-oxo-8,17-diaza-tricyclo[14.3.1.0^2,7]icosa-1(20),2(7),3,5,12,16,18-heptaen-5-yl}-carbamic acid methyl ester] | < 5
COC(=O)Nc1ccc2c(c1)NC(=O)CC/C=C/CC(NC(=O)/C=C/c1cc(Cl)ccc1-n1cnnn1)c1cccc-2c1 (stereo not drawn) [Example 93, {(E)-15-[(E)-3-(5-Chloro-2-tetrazol-1-yl-phenyl)-acryloylamino]-9-oxo-8-aza-tricyclo[14.3.1.0^2,7]icosa-1(20),2,4,6,12,16,18-heptaen-5-yl}-carbamic acid methyl ester] | < 5
O=C(/C=C/c1cc(Cl)ccc1-n1cnnn1)N[C@H]1C/C=C/COC(=O)Nc2ccccc2-c2nc1[nH]c2Cl [Example 121, (E)-N-((E)-(S)-18-Chloro-9-oxo-10-oxa-8,17,19-triaza-tricyclo[14.2.1.0^2,7]nonadeca-1(18),2,4,6,12,16(19)-hexaen-15-yl)-3-(5-chloro-2-tetrazol-1-yl-phenyl)-acrylamide] | < 5
COC(=O)Nc1ccc2c(c1)NC(=O)CC/C=C/C[C@H](NC(=O)c1ccc(C#N)cc1)c1nc-2c(Cl)[nH]1 [Example 136, [(E)-(S)-18-Chloro-15-(4-cyano-benzoylamino)-9-oxo-8,17,19-triaza-tricyclo[14.2.1.0^2,7]nonadeca-1(18),2,4,6,12,16(19)-hexaen-5-yl]-carbamic acid methyl ester, 1 TFA salt] | 962
O=C(/C=C/c1cc(Cl)ccc1-n1cnnn1)N[C@H]1CCCCC(=O)Nc2cnccc2-c2ccnc1c2 [Example 138, (E)-3-(5-Chloro-2-tetrazol-1-yl-phenyl)-N-((S)-9-oxo-5,8,16-triaza-tricyclo[13.3.1.0^2,7]nonadeca-1(19),2,4,6,15,17-hexaen-14-yl)-acrylamide, 2 TFA salt] | 20
COC(=O)Nc1ccc2c(c1)NC(=O)C/C=C/CC(NC(=O)/C=C/c1cc(Cl)ccc1-n1cnnn1)c1cc-2nc(C)n1 (stereo not drawn) [Example 167, {(E)-14-[(E)-3-(5-Chloro-2-tetrazol-1-yl-phenyl)-acryloylamino]-17-methyl-9-oxo-8,16,18-triaza-tricyclo[13.3.1.0^2,7]nonadeca-1(19),2,4,6,11,15,17-heptaen-5-yl}-carbamic acid methyl ester] | 157

Continued, values first:

Ki [nM] | SMILES
< 5 | COC(=O)Nc1ccc2c(c1)NC(=O)CCCC[C@H](NC(=O)c1ccc(C(=N)N)cc1)c1nc-2c[nH]1 [Example I-4]
< 5 | COC(=O)Nc1ccc2c(c1)NC(=O)CCCC[C@H](NC(=O)/C=C/c1cc(Cl)ccc1-n1ccnn1)c1nc-2c[nH]1 [Example I-5]
1870 | COC(=O)Nc1ccc2c(c1)NC(=O)CCCC[C@H](NC(=O)c1cc(-c3cccc(Cl)c3)no1)c1nc-2c[nH]1 [Example I-9]
217 | COC(=O)Nc1ccc2c(c1)NC(=O)CCCC[C@H](NC(=O)c1cn(-c3cccc(Cl)c3)nn1)c1nc-2c[nH]1 [Example I-10]
311 | COC(=O)Nc1ccc2c(c1)NC(=O)CCCC[C@H](NC(=O)c1ccc3c(c1)CCCN3)c1nc-2c[nH]1 [Example I-13]
2920 | COC(=O)Nc1ccc2c(c1)NC(=O)CCCC[C@H](NC(=O)c1ccc3ncccc3c1)c1nc-2c[nH]1 [Example I-14]
351 | COC(=O)Nc1ccc2c(c1)NC(=O)CCCC[C@H](NC(=O)c1cccc3ccccc13)c1nc-2c[nH]1 [Example I-17]
< 5 | COC(=O)Nc1ccc2c(c1)NC(=O)CCCC[C@H](NC(=O)c1c(F)cc3c(ncn3C)c1F)c1nc-2c(F)[nH]1 [Example I-21]
6.6 | COC(=O)Nc1ccc2c(c1)NC(=O)C(C)CCC[C@H](NC(=O)c1c(F)cc3c(ncn3C)c1F)c1nc-2c(Cl)[nH]1 (stereo partly drawn) [Example I-57]
< 5 | COC(=O)Nc1ccc2c(c1)NC(=O)C(C)CCC[C@H](NC(=O)c1c(F)cc3c(ccn3C)c1F)c1nc-2c(Cl)[nH]1 (stereo partly drawn) [Example I-59]
616 | COC(=O)Nc1ccc2c(c1)N[C@@H](C(F)(F)F)CCCC[C@H](NC(=O)/C=C/c1cc(Cl)ccc1-n1cnnn1)c1nc-2c(Cl)[nH]1 [Example I-60]
203 | CCOC(=O)[C@@H]1CCCC[C@H](NC(=O)/C=C/c2cc(Cl)ccc2-n2cnnn2)c2nc(c[nH]2)-c2ccc(NC(=O)OC)cc2N1 [Example I-67, (9S,14S)-14-[(E)-3-(5-Chloro-2-tetrazol-1-yl-phenyl)-acryloylamino]-5-methoxycarbonylamino-8,16,18-triaza-tricyclo[13.2.1.0^2,7]octadeca-1(17),2,4,6,15(18)-pentaene-9-carboxylic acid ethyl ester, 2 TFA salt]
270 | COC(=O)Nc1ccc2c(c1)N[C@@H](C(F)(F)F)CCCC[C@H](NC(=O)/C=C/c1cc(Cl)ccc1-n1cnnn1)c1nc-2c(C)[nH]1 [Example I-70]
